According to patent publication US7638637B2, “Orally available sphingosine 1-phosphate receptor agonists and antagonists” (University of Virginia Patent Foundation, priority 2003, dated 2009):
Entries after “also recorded” stand apart in the source; their conditions may differ. One block for each compound: values may come before it.

What was measured:
Type in all cases: biochemical
S1P receptors [1] = experiment: [γ-35S]GTP binding assay, recombinant S1P receptors in general; conditions: each receptor
Protocol: (§1) The same results were obtained regardless of whether the recombinant receptor used exogenous G proteins (HEK293T cells) or endogenous G proteins (RH7777 cells). In addition, insect Sf9 cells infected with recombinant baculovirus encoding receptors (e.g. […] The Sf9 cell and HEK293T cell membranes gave similar results. Furthermore, the activities measured in the broken cell assay predicted the responses seen in whole cell assays. […] After incubating for 30 minutes at 30° C., bound radionuclide was separated from free by filtration through Whatman GF/C paper using a Brandel Cell Harvester (Gaithersburg, Md.). Assay of cAMP accumulation was performed as described previously (See Im et al., J. Biol. […] Assays were conducted on populations of 5×10^5 cells stimulated with 1 μM forskolin in the presence of the phosphodiesterase inhibitor isomethylbutylxanthine (IBMX, 1 mM) for 15 minutes. cAMP was measured by automated radioimmunoassay.

hS1P1 = molecular target: T1, hS1P1 (Homo sapiens, UniProt P21453); experiment: [γ-35S]GTP binding assay, HEK293T cell membranes, S1P1; conditions: GTPγS binding; for EC50: read-out: EC50 Values (nM) for S1P Analogues at Recombinant S1P Receptors, hS1P1, overexpressed human HEK293 cells
T1 construct: expressed in transfected cells; host or cells: HEK293T cells (transient)
Protocol: (§2) Human or mouse S1P5 DNA was mixed with an equal amount of DNA encoding a rat Gi2R protein as well as DNAs encoding cow β1 and γ2 proteins and used to transfect monolayers of HEK293T cells using the calcium phosphate precipitate method. After 60 hours, cells were harvested, and microsomes were prepared, aliquoted, and stored at −70° C. until use.
(§3) After incubating for 30 minutes at 30° C., bound radionuclide was separated from free by filtration through Whatman GF/C paper using a Brandel Cell Harvester (Gaithersburg, Md.).
(§4) Assay of cAMP accumulation was performed as described previously (See Im et al., J. Biol. Chem. 275, 14281-14286 (2000), the disclosure of which is incorporated herein). Assays were conducted on populations of 5×10^5 cells stimulated with 1 μM forskolin in the presence of the phosphodiesterase inhibitor isomethylbutylxanthine (IBMX, 1 mM) for 15 minutes. cAMP was measured by automated radioimmunoassay. The GTPγS studies were performed using zebrafish S1P1 overexpressed rat RH-7777 and human hS1P1, hS1P2, hS1P3 and hS1P5 overexpressed human HEK293 cells.
(§5) An additional series of compounds was tested using the GTPCS binding assay described in Example 2 and in Im et al., J. Biol. Chem. 275, 14281-14286 (2000), the disclosure of which is incorporated herein).

hS1P5 = molecular target: T2, hS1P5 (Homo sapiens, UniProt Q9H228); experiment: [γ-35S]GTP binding assay, HEK293T cell membranes, S1P5; conditions: read-out: EC50 Values (nM) for S1P Analogues at Recombinant S1P Receptors, hS1P5; GTPγS binding; overexpressed human HEK293 cells
T2 construct: expressed in transfected cells; host or cells: HEK293T cells (transient, calcium phosphate)
Protocol: as §2, §3, §4, §5

mS1P5 = molecular target: T3, mS1P5 (Mus musculus, UniProt Q91X56); experiment: [γ-35S]GTP binding assay, mouse S1P5; conditions: read-out: EC50 Values (nM) for S1P Analogues at Recombinant S1P Receptors, mS1P5, GTPγS binding
T3 construct: expressed in transfected cells; host or cells: HEK293T cells (transient)
Protocol: as §2, §3, §4

hS1P2 = molecular target: T4, hS1P2 (Homo sapiens, UniProt O95136); experiment: [γ-35S]GTP binding assay, HEK293T cell membranes, S1P2; conditions: GTPγS binding; for EC50: read-out: EC50 Values (nM) for S1P Analogues at Recombinant S1P Receptors, hS1P2, overexpressed human HEK293 cells
T4 construct: expressed in transfected cells; host or cells: HEK293T cells (transient)
Protocol: as §2, §3, §4, §5

hS1P3 = molecular target: T5, hS1P3 (Homo sapiens, UniProt Q99500); experiment: [γ-35S]GTP binding assay, HEK293T cell membranes, S1P3; conditions: GTPγS binding; for EC50: read-out: EC50 Values (nM) for S1P Analogues at Recombinant S1P Receptors, hS1P3, overexpressed human HEK293 cells
T5 construct: expressed in transfected cells; host or cells: HEK293T cells (transient)
Protocol: as §2, §3, §4, §5

zS1P1 = molecular target: T6, zS1P1 (Danio rerio, UniProt Q9DDK4); experiment: [γ-35S]GTP binding assay, zebrafish S1P1 overexpressed in rat RH-7777 cells; conditions: read-out: EC50 Values (nM) for S1P Analogues at Recombinant S1P Receptors, zS1P1; GTPγS binding; zebrafish S1P1 overexpressed rat RH-7777
T6 construct: expressed in transfected cells; host or cells: rat hepatoma RH-7777 cells
T6 sequence (Q9DDK4 1-362): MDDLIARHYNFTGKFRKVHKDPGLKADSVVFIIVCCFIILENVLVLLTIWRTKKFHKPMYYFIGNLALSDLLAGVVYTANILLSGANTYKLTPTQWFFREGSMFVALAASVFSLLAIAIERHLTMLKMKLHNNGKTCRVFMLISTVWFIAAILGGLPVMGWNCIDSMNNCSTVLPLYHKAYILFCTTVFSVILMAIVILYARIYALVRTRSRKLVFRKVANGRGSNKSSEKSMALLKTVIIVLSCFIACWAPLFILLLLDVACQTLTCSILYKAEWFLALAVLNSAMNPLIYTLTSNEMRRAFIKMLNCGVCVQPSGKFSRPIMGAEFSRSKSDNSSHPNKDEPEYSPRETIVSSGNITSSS
Protocol: as §3
Rat hepatoma RH7777 cell monolayers were transfected with human or mouse S1P5/pCR3.1 DNA using the calcium phosphate precipitate method, and clonal populations expressing the neomycin phosphotransferase gene were selected by addition of geneticin (G418) to the culture medium. The RH7777 cells were grown in monolayers at 37° C. in a 5% CO2/95% air atmosphere in growth medium consisting of 90% MEM, […], 2 mM glutamine, and 1 mM sodium pyruvate.
as §4

hS1P4 = molecular target: T7, hS1P4 (Homo sapiens, UniProt O95977); experiment: [γ-35S]GTP binding assay, HEK293T cell membranes, S1P4; conditions: GTPγS binding
T7 construct: expressed in transfected cells; host or cells: HEK293T cells (transient)
T7 sequence (O95977 1-384): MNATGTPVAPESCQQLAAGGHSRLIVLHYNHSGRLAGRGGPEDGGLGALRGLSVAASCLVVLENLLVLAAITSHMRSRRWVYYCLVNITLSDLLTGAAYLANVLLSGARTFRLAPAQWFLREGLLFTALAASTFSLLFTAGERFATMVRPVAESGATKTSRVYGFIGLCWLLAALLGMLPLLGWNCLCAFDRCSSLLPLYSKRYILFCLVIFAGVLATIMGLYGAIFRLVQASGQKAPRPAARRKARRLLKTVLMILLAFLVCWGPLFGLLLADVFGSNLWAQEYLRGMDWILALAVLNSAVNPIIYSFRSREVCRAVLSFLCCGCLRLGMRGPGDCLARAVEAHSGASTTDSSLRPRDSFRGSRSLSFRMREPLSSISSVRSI
Protocol: as §3, §5

S1P receptors [2] = system: T8, S1P receptors; experiment: [γ-35S]GTP binding assay, recombinant S1P receptors in general; conditions: various S1P receptors
T8 construct: other: various S1P receptors
Protocol: as §1

T1 sequence (P21453 whole entry): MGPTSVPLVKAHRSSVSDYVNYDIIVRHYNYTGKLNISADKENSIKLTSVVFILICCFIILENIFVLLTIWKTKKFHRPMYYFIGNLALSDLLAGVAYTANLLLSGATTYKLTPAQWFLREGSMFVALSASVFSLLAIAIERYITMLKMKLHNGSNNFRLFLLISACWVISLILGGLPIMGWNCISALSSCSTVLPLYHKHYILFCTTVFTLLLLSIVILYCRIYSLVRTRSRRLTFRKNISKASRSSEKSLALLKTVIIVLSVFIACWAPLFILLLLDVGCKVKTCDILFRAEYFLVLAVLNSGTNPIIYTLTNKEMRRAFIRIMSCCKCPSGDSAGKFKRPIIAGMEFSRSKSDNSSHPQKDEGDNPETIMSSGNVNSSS
T5 sequence (Q99500 whole entry): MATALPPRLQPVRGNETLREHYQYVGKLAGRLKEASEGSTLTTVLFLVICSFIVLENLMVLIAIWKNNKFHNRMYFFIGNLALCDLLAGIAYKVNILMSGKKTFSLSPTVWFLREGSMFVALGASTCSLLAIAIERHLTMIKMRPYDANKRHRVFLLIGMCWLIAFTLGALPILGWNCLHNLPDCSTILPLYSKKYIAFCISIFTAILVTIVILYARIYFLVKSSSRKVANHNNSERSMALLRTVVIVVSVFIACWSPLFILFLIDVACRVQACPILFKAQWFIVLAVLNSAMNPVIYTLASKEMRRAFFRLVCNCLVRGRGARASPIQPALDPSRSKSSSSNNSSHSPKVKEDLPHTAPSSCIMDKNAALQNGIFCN
T4 sequence (O95136 whole entry): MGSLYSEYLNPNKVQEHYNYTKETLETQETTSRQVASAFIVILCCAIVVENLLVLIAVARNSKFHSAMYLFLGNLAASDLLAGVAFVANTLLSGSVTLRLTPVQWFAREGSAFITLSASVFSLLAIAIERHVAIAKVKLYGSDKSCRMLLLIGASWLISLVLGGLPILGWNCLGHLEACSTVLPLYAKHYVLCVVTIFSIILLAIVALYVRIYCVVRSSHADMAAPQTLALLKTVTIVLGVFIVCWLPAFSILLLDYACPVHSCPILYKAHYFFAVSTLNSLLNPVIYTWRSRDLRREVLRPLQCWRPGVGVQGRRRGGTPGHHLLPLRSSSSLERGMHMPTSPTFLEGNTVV
T2 sequence (Q9H228 whole entry): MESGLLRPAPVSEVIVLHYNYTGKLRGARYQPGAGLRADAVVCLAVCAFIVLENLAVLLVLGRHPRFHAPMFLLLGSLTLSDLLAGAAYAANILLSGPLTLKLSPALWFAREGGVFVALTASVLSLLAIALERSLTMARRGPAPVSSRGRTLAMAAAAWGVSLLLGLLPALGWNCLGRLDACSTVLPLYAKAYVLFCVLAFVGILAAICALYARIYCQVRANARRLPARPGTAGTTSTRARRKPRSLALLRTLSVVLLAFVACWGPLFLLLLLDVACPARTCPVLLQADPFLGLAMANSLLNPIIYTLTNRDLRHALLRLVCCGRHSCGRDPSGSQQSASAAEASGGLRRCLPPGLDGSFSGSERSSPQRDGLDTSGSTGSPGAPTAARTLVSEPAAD
T3 sequence (Q91X56 whole entry): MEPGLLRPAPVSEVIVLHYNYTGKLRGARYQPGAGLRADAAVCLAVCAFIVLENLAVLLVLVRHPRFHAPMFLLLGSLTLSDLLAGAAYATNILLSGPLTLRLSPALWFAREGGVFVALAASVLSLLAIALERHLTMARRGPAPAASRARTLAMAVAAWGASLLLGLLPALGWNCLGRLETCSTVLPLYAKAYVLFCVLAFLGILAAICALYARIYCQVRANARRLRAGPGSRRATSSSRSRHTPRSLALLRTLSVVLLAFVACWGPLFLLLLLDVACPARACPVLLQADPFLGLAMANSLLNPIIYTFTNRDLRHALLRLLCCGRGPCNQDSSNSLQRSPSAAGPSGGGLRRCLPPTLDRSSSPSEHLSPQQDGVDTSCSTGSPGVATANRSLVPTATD

SMILES: CCCCCCCCCCCCC/C=C/[C@@H](O)[C@@H](N)COP(=O)(O)O [Compound S1P, Sphingosine-1-phosphate, reference compound]
- increase of GTPγS binding at each receptor (S1P receptors [1]): 2-5 fold

SMILES: CCCCCCCCCCCCCCNC(=O)[C@@H](N)COP(=O)(O)O [VPC22051]
- EC50 (hS1P1): 322 nM
- EC50 (hS1P5): > 5000 nM
- EC50 (mS1P5): > 5000 nM
- EC50 (hS1P2): 2760 nM
- EC50 (hS1P3): 602 nM
- EC50 (zS1P1): > 5000 nM

SMILES: CCCCCCCCCCCCCCOC(=O)[C@@H](N)COP(=O)(O)O [VPC22053]
- less potent than enantiomer VPC22135 at the S1P1 receptor (hS1P1): more than 1 log order
- EC50 (hS1P1): 397 nM
- EC50 (hS1P5): 1610 nM
- EC50 (mS1P5): 2010 nM
- EC50 (hS1P2): 2680 nM
- less potent than enantiomer VPC22135 at the S1P3 receptor (hS1P3): more than 1 log order
- EC50 (hS1P3): 862 nM
- EC50 (zS1P1): > 5000 nM

SMILES: CCCCCCCCCCCCCCNC(=O)[C@H](N)COP(=O)(O)O [VPC22135]
- potency compared with S1P at the human S1P1 receptor (hS1P1): approached the potency of S1P
- potency compared with S1P at the human S1P3 receptor (hS1P3): approached the potency of S1P

SMILES: CCCCCCCCc1ccccc1NC(=O)[C@H](N)COP(=O)(O)O [VPC23089]
- activity at the S1P2 receptor (hS1P2): inactive; also recorded: failed to show significant activity
- agonism or inverse agonism (antagonism) at the S1P3 receptor (hS1P3): inverse agonists

Second part, led by results:

- antagonism at S1P1 (hS1P1; competition with S1P): antagonism
- agonism or inverse agonism (antagonism) at the S1P3 receptor (hS1P3): inverse agonists
SMILES: CCCCCCCCc1cccc(NC(=O)[C@H](N)COP(=O)(O)O)c1 [VPC23019]
- activity at the S1P2 receptor (hS1P2): inactive; also recorded: failed to show significant activity

- agonism or inverse agonism (antagonism) at the S1P3 receptor (hS1P3): inverse agonists
SMILES: CCCCCCc1cccc(NC(=O)[C@H](N)COP(=O)(O)O)c1 [VPC23031]
- activity at the S1P2 receptor (hS1P2): inactive; also recorded: failed to show significant activity

- agonist activity at the S1P4 receptor (hS1P4): good agonist activity
- agonist activity at S1P receptors (S1P receptors [2]): significant agonist activity
SMILES: CCCCCCCCCCc1cccc(NC(=O)[C@H](N)CO)c1 [VPC23065]
- activity at the S1P2 receptor (hS1P2): inactive; also recorded: failed to show significant activity

- agonism or inverse agonism (antagonism) at the S1P3 receptor (hS1P3): agonism
SMILES: CCCCCCCCCCc1cccc(NC(=O)[C@H](N)COP(=O)(O)O)c1 [VPC23069]
- activity at the S1P2 receptor (hS1P2): inactive; also recorded: failed to show significant activity

- agonist activity at the S1P4 receptor (hS1P4): good agonist activity
- agonist activity at S1P receptors (S1P receptors [2]): significant agonist activity
SMILES: CCCCCCCCCc1cccc(NC(=O)[C@H](N)CO)c1 [VPC23075]
- activity at the S1P2 receptor (hS1P2): inactive; also recorded: failed to show significant activity

- agonism or inverse agonism (antagonism) at the S1P3 receptor (hS1P3): agonism
SMILES: CCCCCCCCCc1cccc(NC(=O)[C@H](N)COP(=O)(O)O)c1 [VPC23079]
- activity at the S1P2 receptor (hS1P2): inactive; also recorded: failed to show significant activity

- agonist activity at the S1P4 receptor (hS1P4): good agonist activity
- agonist activity at S1P receptors (S1P receptors [2]): significant agonist activity
SMILES: CCCCCCCCc1ccccc1NC(=O)[C@H](N)CO [VPC23087]
- activity at the S1P2 receptor (hS1P2): inactive; also recorded: failed to show significant activity
